Reference: US9193736B2, “PDE 10a inhibitors for the treatment of type II diabetes” (Janssen Pharmaceutica, NV, priority 2013, dated 2015)
Where a name gives a salt, the structure may show the parent alone. Residues, ends and D or L forms follow the SMILES beside them. *: point of attachment. X1 = O=C(c1ccc(-c2c(C#Cc3ccc4ccccc4n3)nc3c(N4CCOCC4)ccnn23)cc1)*

Columns and labels:
[1] = target: Human recombinant PDE10A2 (Homo sapiens (Human), UniProt Q9Y233); experiment: In vitro hPDE10a: human recombinant PDE10A2 scintillation proximity assay, IC50; assay type: biochemical; settings: human recombinant PDE10A2, SPA, 60 nM cAMP; read-out: hPDE10a2 IC50
Human recombinant PDE10A2, sequence (Q9Y233 267-1055): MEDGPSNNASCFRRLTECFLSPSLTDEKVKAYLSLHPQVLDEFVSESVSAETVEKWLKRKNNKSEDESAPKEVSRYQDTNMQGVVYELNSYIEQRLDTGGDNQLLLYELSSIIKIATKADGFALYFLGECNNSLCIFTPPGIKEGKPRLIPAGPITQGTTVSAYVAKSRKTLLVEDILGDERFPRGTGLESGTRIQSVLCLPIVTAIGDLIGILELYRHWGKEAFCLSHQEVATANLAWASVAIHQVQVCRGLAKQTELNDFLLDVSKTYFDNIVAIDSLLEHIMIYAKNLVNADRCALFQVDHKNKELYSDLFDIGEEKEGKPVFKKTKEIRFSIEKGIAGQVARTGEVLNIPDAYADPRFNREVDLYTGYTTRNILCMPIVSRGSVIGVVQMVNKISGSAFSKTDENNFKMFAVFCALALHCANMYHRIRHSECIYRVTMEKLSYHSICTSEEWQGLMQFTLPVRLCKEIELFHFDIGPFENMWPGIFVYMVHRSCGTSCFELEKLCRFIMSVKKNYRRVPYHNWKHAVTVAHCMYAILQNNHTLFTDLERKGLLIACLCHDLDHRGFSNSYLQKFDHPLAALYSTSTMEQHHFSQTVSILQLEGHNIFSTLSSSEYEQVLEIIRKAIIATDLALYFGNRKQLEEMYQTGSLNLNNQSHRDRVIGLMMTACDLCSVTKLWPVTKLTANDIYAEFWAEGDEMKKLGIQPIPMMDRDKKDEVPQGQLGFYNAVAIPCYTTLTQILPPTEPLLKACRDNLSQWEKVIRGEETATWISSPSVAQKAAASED
Method: Cells were harvested and the phosphodiesterase protein was purified by metal chelate chromatography on Ni-sepharose 6FF. The affinity of the compounds of Formula (I) for phophodiesterases (PDE) was measured by a scintillation proximity assay (SPA). PDE Yttrium Silicate SPA beads allow PDE activity to be measured by direct binding of the primary phosphate groups of non-cyclic AMP or GMP to the beads via a complex iron chelation mechanism. The amount of bound tritiated product ([^3H]-AMP) is measured by liquid scintillation counting. The compounds were dissolved and diluted in 100% DMSO in polystyrene plates to a concentration of 100-fold the final concentration in the assay. […] After incubation, the reaction was stopped with 20 μL of stop solution, consisting of PDE SPA beads (17.8 mg beads/mL in 18 mM zinc sulphate). […] To measure the low control, no enzyme was added to the reaction mixture. Data were calculated as the percentage of inhibition of total activity measured in the absence of test compound (% control). […] For compounds tested more than once, the data points were aggregated.

[2] = target: Rat recombinant PDE10a (rPDE10a) (Rattus norvegicus (Rat), UniProt Q9QYJ6); experiment: In vitro assay PDE10a: rat recombinant PDE10a SPA with 3H-cAMP substrate, IC50; assay type: biochemical; settings: 60 nM cAMP, read-out: rPDE10a2 IC50
Rat recombinant PDE10a (rPDE10a), sequence (Q9QYJ6 whole entry): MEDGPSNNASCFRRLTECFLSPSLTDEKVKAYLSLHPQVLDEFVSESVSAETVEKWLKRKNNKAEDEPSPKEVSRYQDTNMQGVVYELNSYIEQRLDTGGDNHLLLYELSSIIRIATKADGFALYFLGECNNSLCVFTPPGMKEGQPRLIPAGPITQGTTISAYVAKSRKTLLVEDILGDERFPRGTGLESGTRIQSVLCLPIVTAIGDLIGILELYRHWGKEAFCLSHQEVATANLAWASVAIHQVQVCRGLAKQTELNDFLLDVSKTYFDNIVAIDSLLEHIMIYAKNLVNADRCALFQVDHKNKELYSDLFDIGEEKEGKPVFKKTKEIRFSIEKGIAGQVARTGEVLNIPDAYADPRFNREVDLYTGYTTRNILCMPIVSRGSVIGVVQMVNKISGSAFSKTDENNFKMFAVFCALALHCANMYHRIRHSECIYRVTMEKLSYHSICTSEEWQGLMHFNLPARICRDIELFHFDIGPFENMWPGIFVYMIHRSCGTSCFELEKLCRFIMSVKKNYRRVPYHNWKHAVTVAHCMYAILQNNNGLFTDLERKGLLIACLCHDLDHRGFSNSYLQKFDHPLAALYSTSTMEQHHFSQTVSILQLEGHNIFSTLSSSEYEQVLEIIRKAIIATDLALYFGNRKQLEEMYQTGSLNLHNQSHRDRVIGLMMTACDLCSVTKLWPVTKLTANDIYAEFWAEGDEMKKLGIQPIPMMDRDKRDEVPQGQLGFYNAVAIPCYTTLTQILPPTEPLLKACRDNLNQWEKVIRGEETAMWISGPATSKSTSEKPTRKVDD
Method: In Vitro Assay PDE10a Rat recombinant PDE10a (rPDE10a) was expressed in Sf9 cells using a recombinant rPDE10a baculovirus construct. Cells were harvested after 48 h of infection and the rPDE10a protein was purified by metal chelate chromatography on Ni-sepharose 6FF. Tested compounds were dissolved and diluted in 100% DMSO to a concentration 100 fold of the final concentration in the assay. […] The reaction was incubated for 60 min at rt. After incubation, the reaction was stopped with 20 μL of 17.8 mg/mL PDE SPA beads. […] For blank values the enzyme was omitted from the reaction and replaced by incubation buffer.

Structure (SMILES)	IC50 [1]	IC50 [2]
COc1cc(/C=C/c2nc3c(N4CCOCC4)ccnn3c2-c2ccc(C(=O)O)cc2)nc2ccccc12 [Cpd 135, 4-{2-[(E)-2-(4-Methoxyquinolin-2-yl)ethenyl]-8-morpholin-4-ylimidazo[1,2-b]pyridazin-3-yl}benzoic acid]	6 nM	10 nM
O=C(Nc1ccc2ccccc2n1)c1nc2c(N3CCOCC3)ccnn2c1-c1ccc(N2CCNCC2)nc1 [Cpd 3, 8-Morpholino-3-(6-(piperazin-1-yl)pyridin-3-yl)-N-(quinolin-2-yl)imidazo[1,2-b]pyridazine-2-carboxamide trifluoroacetic acid salt]	759 nM	676 nM
O=C(O)C1CCN(c2c(/C=C/c3ccc4ccccc4n3)nc3c(N4CCOCC4)ccnn23)CC1 [Cpd 131, (E)-1-(8-Morpholino-2-(2-(quinolin-2-yl)vinyl)imidazo[1,2-b]pyridazin-3-yl)piperidine-4-carboxylic acid trifluoroacetic acid salt]	7 nM	5 nM
Nc1ccc(-c2c(/C=C/c3ccc4ccccc4n3)nc3c(N4CCOCC4)ccnn23)cn1 [Cpd 18, (E)-5-(8-Morpholino-2-(2-(quinolin-2-yl)vinyl)imidazo[1,2-b]pyridazin-3-yl)pyridin-2-amine]	6 nM	3 nM
O=C(O)[C@@H]1CCCN1C(=O)c1ccc(-c2c(/C=C/c3ccc4ccccc4n3)nc3c(N4CCOCC4)ccnn23)cc1 [Cpd 71, (S,E)-1-(4-(8-Morpholino-2-(2-(quinolin-2-yl)vinyl)imidazo[1,2-b]pyridazin-3-yl)benzoyl)pyrrolidine-2-carboxylic acid trifluoroacetic acid salt]	6 nM	8 nM
CC(C)(C(=O)O)c1ccc(-c2c([C@H]3C[C@H](c4ccc5ccccc5n4)C3)nc3c(N4CCOCC4)ccnn23)cc1 [Cpd 171, 2-Methyl-2-(4-(8-morpholino-2-((1R,3R)-3-(quinolin-2-yl)cyclobutyl)imidazo[1,2-b]pyridazin-3-yl)phenyl)propanoic acid]	2 nM	–
O=c1ncn(-c2ccc(-c3c(/C=C/c4ccc5ccccc5n4)nc4c(N5CCOCC5)ccnn34)cc2F)[nH]1 [Cpd 158, (E)-1-(2-Fluoro-4-(8-morpholino-2-(2-(quinolin-2-yl)vinyl)imidazo[1,2-b]pyridazin-3-yl)phenyl)-1,2-dihydro-1,2,4-triazol-3-one]	5 nM	–
CC(=O)c1ccc(-c2c(C#Cc3ccc4ccccc4n3)nc3c(N4CCOCC4)ccnn23)cc1 [Cpd 159, 1-(4-(8-Morpholino-2-(quinolin-2-ylethynyl)imidazo[1,2-b]pyridazin-3-yl)phenyl)ethanone]	9 nM	–
O=C(O)C1CCN(c2ccc(-c3c([C@H]4C[C@@H](c5ccc6ccccc6n5)C4)nc4c(N5CCOCC5)ccnn34)cc2)CC1 [compound 166, 1-(4-(8-Morpholino-2-((1s,3s)-3-(quinolin-2-yl)cyclobutyl)imidazo[1,2-b]pyridazin-3-yl)phenyl)piperidine-4-carboxylic acid]	93 nM	–
O=C(O)c1ccc(-c2c(/C=C/c3ccc4c(n3)CCCC4)nc3c(N4CCOCC4)ccnn23)cn1 [Cpd 107, (E)-5-(8-morpholino-2-(2-(5,6,7,8-tetrahydroquinolin-2-yl)vinyl)imidazo[1,2-b]pyridazin-3-yl)picolinic acid trifluoroacetic acid salt]	12 nM	–
O=C(O)c1ccc(-c2c([C@@H]3C[C@@H]3c3ccc4ccccc4n3)nc3c(N4CCOCC4)cc(Cl)nn23)cc1F [Cpd 165, 4-(6-Chloro-8-morpholino-2-((1R,2S)-2-(quinolin-2-yl)cyclopropyl)imidazo[1,2-b]pyridazin-3-yl)-2-fluorobenzoic acid trifluoroacetic acid salt]	12 nM	–
O=C(O)[C@H]1C[C@@H]1c1ccc(-c2c([C@H]3C[C@H](c4ccc5ccccc5n4)C3)nc3c(N4CCOCC4)ccnn23)cc1 [Cpd 170, (1R,2S)-2-(4-(8-Morpholino-2-((1R,3S)-3-(quinolin-2-yl)cyclobutyl)imidazo[1,2-b]pyridazin-3-yl)phenyl)cyclopropanecarboxylic acid]	1 nM	–
CC(C)(CC(=O)O)c1ccc(-c2c([C@H]3C[C@H](c4ccc5ccccc5n4)C3)nc3c(N4CCOCC4)ccnn23)cc1 [Cpd 172, 3-Methyl-3-{4-[8-morpholin-4-yl-2-(trans-3-quinolin-2-ylcyclobutyl)imidazo[1,2-b]pyridazin-3-yl]phenyl}butanoic acid]	1 nM	–
O=c1[nH]nc(-c2ccc(-c3c(/C=C/c4ccc5ccccc5n4)nc4c(N5CCOCC5)ccnn34)cc2F)[nH]1 [Cpd 162, (E)-5-(2-Fluoro-4-(8-morpholino-2-(2-(quinolin-2-yl)vinyl)imidazo[1,2-b]pyridazin-3-yl)phenyl)-2H-1,2,4-triazol-3(4H)-one]	9 nM	–
Cn1nc(-c2ccc(-c3c(/C=C/c4ccc5ccccc5n4)nc4c(N5CCOCC5)ccnn34)cc2F)[nH]c1=O [Cpd 163, (E)-5-(2-Fluoro-4-(8-morpholino-2-(2-(quinolin-2-yl)vinyl)imidazo[1,2-b]pyridazin-3-yl)phenyl)-2-methyl-2H-1,2,4-triazol-3(4H)-one]	12 nM	–
c1ccc2nc(C3CC3c3cn4nccc(N5CCOCC5)c4n3)ccc2c1 (stereo not shown) [Cpd 161, 2-[2-(8-Morpholin-4-ylimidazo[1,2-b]pyridazin-2-yl)cyclopropyl]quinoline]	4 nM	–

Continued, values first:

IC50 [1]	IC50 [2]	Structure (SMILES)
< 1 nM	< 1 nM	O=C(O)c1ccc(-c2c(CCc3ccc4ccccc4n3)nc3c(N4CCOCC4)ccnn23)s1 [compound 61, 5-(8-Morpholino-2-(2-(quinolin-2-yl)ethyl)imidazo[1,2-b]pyridazin-3-yl)thiophene-2-carboxylic acid]
13 nM	–	O=C(O)c1ccc(-c2c([C@H]3C[C@@H](c4ccc5ccccc5n4)C3)nc3c(N4CCOCC4)ccnn23)cc1 [compound 167, 4-(8-Morpholino-2-((1s,3s)-3-(quinolin-2-yl)cyclobutyl)imidazo[1,2-b]pyridazin-3-yl)benzoic acid trifluoroacetic acid salt]
< 1 nM	< 1 nM	COc1cc(-c2c(C#Cc3ccc4ccccc4n3)nc3c(N4CCOCC4)ccnn23)ccc1C(=O)O [compound 91, 2-Methoxy-4-(8-morpholino-2-(quinolin-2-ylethynyl)imidazo[1,2-b]pyridazin-3-yl)benzoic acid]
2 nM	2 nM	CC(=O)NS(=O)(=O)c1ccc(-c2c(/C=C/c3ccc4ccccc4n3)nc3c(N4CCOCC4)ccnn23)cc1 [compound 36, (E)-N-((4-(8-Morpholino-2-(2-(quinolin-2-yl)vinyl)imidazo[1,2-b]pyridazin-3-yl)phenyl)sulfonyl)acetamide]
1 nM	–	O=C(O)c1ccc(-c2c([C@H]3C[C@H](c4ccc5ccccc5n4)C3)nc3c(N4CCOCC4)cc(Cl)nn23)cc1 [compound 160, 4-(6-Chloro-8-morpholino-2-((1r,3r)-3-(quinolin-2-yl)cyclobutyl)imidazo[1,2-b]pyridazin-3-yl)benzoic acid trifluoroacetic acid salt]
6 nM	–	NCC(=O)N[C@@H](CCCCNC(=O)c1ccc(-c2c(C#Cc3ccc4ccccc4n3)nc3c(N4CCOCC4)ccnn23)cc1)C(N)=O [Cpd 181, (S)—N-(6-amino-5-(2-aminoacetamido)-6-oxohexyl)-4-(8-morpholino-2-(quinolin-2-ylethynyl)imidazo[1,2-b]pyridazin-3-yl)benzamide]
5 nM	–	C[C@H](N)C(=O)N[C@@H](CCCCNC(=O)c1ccc(-c2c(C#Cc3ccc4ccccc4n3)nc3c(N4CCOCC4)ccnn23)cc1)C(N)=O [Cpd 179, N—((S)-6-amino-5-((S)-2-aminopropanamido)-6-oxohexyl)-4-(8-morpholino-2-(quinolin-2-ylethynyl)imidazo[1,2-b]pyridazin-3-yl)benzamide]
1 nM	–	O=C(O)CC1(c2ccc(-c3c([C@H]4C[C@H](c5ccc6ccccc6n5)C4)nc4c(N5CCOCC5)ccnn34)cc2)COC1 [Cpd 174, 2-(3-(4-(8-Morpholino-2-((1R,3R)-3-(quinolin-2-yl)cyclobutyl)imidazo[1,2-b]pyridazin-3-yl)phenyl)oxetan-3-yl)acetic acid]
5 nM	–	NC(=O)[C@@H](N)CCCCNC(=O)c1ccc(-c2c(C#Cc3ccc4ccccc4n3)nc3c(N4CCOCC4)ccnn23)cc1 [Cpd 180, (S)—N-(5,6-diamino-6-oxohexyl)-4-(8-morpholino-2-(quinolin-2-ylethynyl)imidazo[1,2-b]pyridazin-3-yl)benzamide]
11 nM	–	CC(C)C[C@H](NC(=O)[C@H](C)N)C(=O)N[C@@H](C)C(=O)N[C@@H](CCCCNC(=O)c1ccc(-c2c(C#Cc3ccc4ccccc4n3)nc3c(N4CCOCC4)ccnn23)cc1)C(N)=O [Cpd 178, N—((S)-6-amino-5-((S)-2-((S)-2-((S)-2-aminopropanamido)-4-methylpentanamido)propanamido)-6-oxohexyl)-4-(8-morpholino-2-(quinolin-2-ylethynyl)imidazo[1,2-b]pyridazin-3-yl)benzamide] (H-ALAK(X1)-NH2)
